# Experimental data: patent publication US20240366606A1, “MRGPRX2 ANTAGONISTS AND USES THEREOF” (The Regents of the University of California, priority 2021, published 2024)
# Entries after “also recorded” stand apart in the source; their conditions may differ. Like-named read-outs stand apart in the source and are kept apart here.
# Columns and labels:
# MRGPRX2 [1] = target: T1, MRGPRX2 (Homo sapiens (Human), UniProt Q96LB1); assay: FLIPR Ca2+ assay, antagonist mode, tetracycline-inducible MRGPRX2 stable cell line; format: cell-based; settings: for inhibition of substance P stimulated MRGPRX2 activation: EC80 substance P concentration; for antagonist activity for MRGPRX2: in words, SAR around '1592
# T1 sequence (Q96LB1 whole entry): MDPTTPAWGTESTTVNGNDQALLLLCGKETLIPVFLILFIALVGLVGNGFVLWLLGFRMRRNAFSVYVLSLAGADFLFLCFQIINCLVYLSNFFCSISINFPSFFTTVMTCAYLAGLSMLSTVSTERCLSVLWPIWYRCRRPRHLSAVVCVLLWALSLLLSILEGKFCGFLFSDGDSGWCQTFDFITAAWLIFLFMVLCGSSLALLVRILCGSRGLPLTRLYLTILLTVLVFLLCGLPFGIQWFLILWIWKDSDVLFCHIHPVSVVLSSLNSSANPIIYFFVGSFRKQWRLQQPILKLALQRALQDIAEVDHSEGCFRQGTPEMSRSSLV
# Protocol: FLIPR Ca2+ assay. […] NK1 stably expressing cell were maintained in DMEM containing 10% (v/v) FBS, 100 units ml^−1 penicillin G and 100 μg ml^−1 streptomycin. On the day of assay, cells were plated into Poly-L-Lysine (PLL) coated 384-well black clear bottom cell culture plates with DMEM buffer, which is composed of 1% (v/v) dialyzed FBS, 100 units ml^−1 penicillin G, 100 μg ml^−1 streptomycin with 1 μg ml^−1 tetracycline at density of 20,000 cells in 40 μl per well for overnight. For NK1 stable cells, the same media used for MRGPRX2 or MRGPRX4 cells except the tetracycline were used. Medium was removed and cells were incubated with 20 μl of calcium dye (FLIPR Calcium 4 Assay Kit; Molecular Devices) diluted in assay buffer (1×HBSS, 2.5 mM probenecid, and 20 mM HEPES, pH 7.4) for 1 hour at 37° C. and 20 min at room temperature in the dark. To measure agonist activity of receptors, drug plates were prepared with increasing concentrations of test compound at 3 times the desired final concentration using drug buffer (1×HBSS, 20 mM HEPES, 0.1% (w/v) BSA, pH 7.4). Once loaded in FLIPR (Molecular Devices), basal fluorescence was measured for 10 s, then 10 μl of test compounds were added followed by continued fluorescence measurement for an additional 120 s. When measuring antagonist activity of receptors, drug plates were prepared with increasing concentrations of test compound at 4 times the desired final concentration, added as above for their potential effects on basal levels for 120 s first, followed by a 15 min incubation before addition of 10 μl of 4× of reference agonist at final concentration corresponding to the EC80. Data were normalized to % reference compound stimulation and analyzed using nonlinear regression “log(agonist) vs. response” in GraphPad Prism 9.0.
# LAD2 human mast cells = assay: Human mast cell activation (beta-hexosaminidase release) assay; format: cell-based; settings: (R)-ZINC-3573 stimulation; listed as C9
# Protocol: Human Mast Cell activation (Beta-hexosaminidase release) Assay. Mast cell activation was assessed by measuring extracellular release of Beta-hexosaminidase, a major component of mast cell granules. To assay human mast cell Beta-hexosaminidase release, LAD2 human mast cells were seeded at a concentration of 2*10^5 cells per well in 96-well plates in Tyrode's buffer (100 μl). 15 minutes prior to activation, varying concentrations of either C7 or C9 were added to the wells to reach a total volume of 190 μl. For activation, (R)-ZINC-3573 (10 μl, 2 μM) was added to each well for 30 minutes at 37° C. Separate wells received either buffer (buffer control), 0.1% Triton X-100 (total beta-hexosaminidase control), or (R)-ZINC-3573 alone (positive control) for the same amount of time. 30 μl of the supernatant were then removed from each well and added to 10 μl of NAG substrate solution (p-nitrophenyl-N-acetyl-β-D-glucosaminide) and allowed to incubate for 1 hour at 37° C. Carbonate buffer (100 μl) was then added to each well and the absorbance of each well was immediately measured at 405 nm using a plate reader. Percent degranulation (%) was calculated as follows: ((Treatment release−buffer release)/(total release−buffer release))*100. Samples were run in quadruplicate and each compound was assayed in at least two independent experiments. Data were analyzed using GraphPad Prism 9.0.
# MRGPRX2 [2] = target: T1, MRGPRX2; assay: BRET1 recruitment assay (inverse agonist activity, miniGq recruitment) in HEK293T cells; format: cell-based
# Protocol: Bioluminescence resonance energy transfer assay 1 (BRET1). To test the inverse agonist activities of MRGPRX2 compounds, BRET1 recruitment assay was performed. Human MRGPRX2 containing C-terminal Renilla luciferase (RLuc8), and Venus-tagged miniGq were co-transfected at a ratio of 1:5 using HEK293T cells. After 20-24 hours, transfected cells were plated into poly-L-lysine coated 96-well clear bottom white plate in plating media (DMEM+1% (v/v) dialyzed FBS). The next day, media was decanted and cells were washed once with 60 μl drug buffer (1×HBSS, 20 mM HEPES, 0.1% (w/v) BSA, pH 7.4), then 60 μl drug buffer containing 5 μM coelenterazine h (Promega) was added to each well and incubate for 5 min. Cells were then treated with 30 μl of 3× designated drug for an additional 5 minutes. After drug incubation, plates were read in an LB940 Mithras plate reader (Berthold Technologies) for both luminescence at 485 nm and fluorescent eYFP emission at 530 nm for 1 s per well. The ratio of eYFP/RLuc was calculated per well and the net BRET ratio was calculated and fitted using “log(inhibitor) vs. response” in GraphPad Prism 9.0 to represent the inhibitory effect of MRGPX2 compound.
# NK1R = NK1R (Homo sapiens (Human), UniProt P25103); assay: FLIPR Ca2+ assay, antagonist mode, NK1R stable cell line; format: cell-based
# Chain of NK1R (P25103 whole entry, species assumed): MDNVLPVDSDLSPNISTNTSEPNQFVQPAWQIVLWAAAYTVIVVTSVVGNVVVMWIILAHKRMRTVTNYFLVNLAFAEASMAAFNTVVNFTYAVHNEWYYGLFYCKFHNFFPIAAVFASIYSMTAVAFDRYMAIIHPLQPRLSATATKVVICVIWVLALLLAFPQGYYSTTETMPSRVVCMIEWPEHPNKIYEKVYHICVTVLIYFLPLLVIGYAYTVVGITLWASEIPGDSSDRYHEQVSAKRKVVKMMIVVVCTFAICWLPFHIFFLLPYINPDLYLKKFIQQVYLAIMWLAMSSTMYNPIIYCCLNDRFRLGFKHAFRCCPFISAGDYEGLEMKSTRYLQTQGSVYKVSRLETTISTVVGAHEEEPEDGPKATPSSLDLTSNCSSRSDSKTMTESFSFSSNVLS
# Protocol: (§1) FLIPR Ca2+ assay. Tetracycline inducible MRGPRX2 or MRGPRX4 stable cells [Flp-In™ T-REx™-293 cell which is derived from HEK 293 cells (ATCC, CRL 1573)] were maintained in DMEM containing 10% (v/v) FBS, 100 units ml^−1 penicillin G, 100 μg ml^−1 streptomycin, 100 μg ml^−1 hygromycin B, and 15 μg ml^−1 blasticidin ^16. NK1 stably expressing cell were maintained in DMEM containing 10% (v/v) FBS, 100 units ml^−1 penicillin G and 100 μg ml^−1 streptomycin. On the day of assay, cells were plated into Poly-L-Lysine (PLL) coated 384-well black clear bottom cell culture plates with DMEM buffer, which is composed of 1% (v/v) dialyzed FBS, 100 units ml^−1 penicillin G, 100 μg ml^−1 streptomycin with 1 μg ml^−1 tetracycline at density of 20,000 cells in 40 μl per well for overnight. For NK1 stable cells, the same media used for MRGPRX2 or MRGPRX4 cells except the tetracycline were used. […] Once loaded in FLIPR (Molecular Devices), basal fluorescence was measured for 10 s, then 10 μl of test compounds were added followed by continued fluorescence measurement for an additional 120 s. […] Data were normalized to % reference compound stimulation and analyzed using nonlinear regression “log(agonist) vs. response” in GraphPad Prism 9.0.
# [3] = test system: a number of GPCRs, ion channels and transporters; assay: Off-target profiling / inhibition screen (NIMH PDSP binding assays); settings: screened at 10 μM
# Protocol: Inhibition screen. Binding assays were performed by the NIMH Psychoactive Drug Screening program as described previously (PMID: 23235874). Detailed binding assay protocols are available at: https://pdspdb.unc.edu/pdspWeb/content/UNC-CH %20Protocol %20Book.pdf.
# MRGPRX4 = MRGPRX4 (Homo sapiens (Human), UniProt Q96LA9); assay: FLIPR Ca2+ assay, antagonist mode, tetracycline-inducible MRGPRX4 stable cell line; format: cell-based
# Chain of MRGPRX4 (Q96LA9 whole entry): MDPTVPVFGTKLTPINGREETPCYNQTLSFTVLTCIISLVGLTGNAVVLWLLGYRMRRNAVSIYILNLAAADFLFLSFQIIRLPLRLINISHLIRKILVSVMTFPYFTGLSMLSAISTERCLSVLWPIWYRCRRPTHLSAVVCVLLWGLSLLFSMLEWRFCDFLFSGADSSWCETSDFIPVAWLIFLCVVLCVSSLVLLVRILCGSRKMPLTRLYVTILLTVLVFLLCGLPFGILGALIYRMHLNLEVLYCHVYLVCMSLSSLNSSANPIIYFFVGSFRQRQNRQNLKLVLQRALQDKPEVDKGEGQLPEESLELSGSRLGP
# Protocol: as §1
# [4] = Table 1, read-out: pKi (calc.) (converted)
# [5] = antagonist activity at MRGPRX2, EC80 (R)-ZINC-3573 (3 μM), read-out: Ki value
SMILES,pKi (calc.) (MRGPRX2 [1]; Table 1),"Ki (MRGPRX2 [1]; Table 1, read-out: Ki) [nM]",also measured
O=c1c2ccccc2[nH]c(=S)n1Cc1cccs1 [Compound C9-8],6.29 ± 0.23,514,–
O=c1c2cc(F)ccc2[nH]c(=S)n1Cc1ccccn1 [Compound 14],5.6,2520,–
O=c1c2ccccc2[nH]c(=S)n1Cc1ccccc1Cl [Compound C9-4],5.93 ± 0.3,1160,–
"O=c1c2ccccc2[nH]c(=S)n1Cc1ccccn1 [ZINC16991592, reference compound]",–,2190,Ki (MRGPRX2 [1]; [4]): 2340 nM; Ki (MRGPRX2 [1]; [5]): 189 nM
O=c1c2ccccc2[nH]c(=S)n1Cc1ccsc1 [Compound C9-9],7.32 ± 0.04,47,–
O=c1c2ccccc2[nH]c(=S)n1Cc1ccon1 [Compound C9-1],6.76 ± 0.21,172,–
O=c1c2ccccc2[nH]c(=S)n1Cc1ccccc1 [Compound 1],–,57,Ki (MRGPRX2 [1]; [4]): 63.1 nM
COc1cccnc1Cn1c(=S)[nH]c2ccccc2c1=O [Compound 8],–,57,Ki (MRGPRX2 [1]; [4]): 63.1 nM
O=c1c2ccccc2[nH]c(=S)n1Cc1nccs1 [Compound 9],7.5,32,"inhibition of (R)-ZINC-3573-stimulated LAD2 human mast cell degranulation (LAD2 human mast cells): inhibit MRGPRX2 mediated LAD2 human mast activation; also recorded: inhibit (R)-ZINC-3573-stimulated LAD2 human mast cell degranulation in a concentration-dependent manner; inverse agonist activity, inhibition of basal recruitment of Gq by MRGPRX2 (MRGPRX2 [2]; listed as C9): inhibit the basal recruitment of Gq by MRGPRX2; also recorded: inverse agonists; antagonist activity towards NK1R (NK1R): no antagonist activity; off-target activity [3]: no significant activity; antagonist activity towards MRGPRX4 (MRGPRX4): no antagonist activity; inhibition of substance P stimulated MRGPRX2 activation (MRGPRX2 [1]; listed as C9): inhibit substance P stimulated MRGPRX2 activation; also recorded: could inhibit MRGPRX2 activation; Ki (MRGPRX2 [1]; [5]): 43 nM; antagonist activity for MRGPRX2 (MRGPRX2 [1]; listed as C9): improved antagonist activity; also recorded: most potent and selective antagonist"
O=c1c2ccccc2[nH]c(=S)n1Cc1ccc(Cl)cc1 [Compound C9-3],5.75 ± 0.16,1780,–
COc1ccccc1Cn1c(=S)[nH]c2ccccc2c1=O [Compound C9-5],7.01 ± 0.07,98,–
O=c1c2ccccc2[nH]c(=S)n1CCc1ccccn1 [Compound 7],5.2,6520,antagonist activity for MRGPRX2 (MRGPRX2 [1]): inactive control
O=c1c2ccccc2[nH]c(=S)n1Cc1ccco1 [Compound C9-6],7.42 ± 0.06,38,"inverse agonist activity, inhibition of basal recruitment of Gq by MRGPRX2 (MRGPRX2 [2]): inhibit the basal recruitment of Gq by MRGPRX2; also recorded: inverse agonists; antagonist activity towards NK1R (NK1R): no antagonist activity; off-target activity [3]: no significant activity; antagonist activity towards MRGPRX4 (MRGPRX4): no antagonist activity; inhibition of substance P stimulated MRGPRX2 activation (MRGPRX2 [1]): inhibit substance P stimulated MRGPRX2 activation; also recorded: could inhibit MRGPRX2 activation; Ki (MRGPRX2 [1]; [5]): 58 nM; antagonist activity for MRGPRX2 (MRGPRX2 [1]): improved antagonist activity; also recorded: most potent and selective antagonist"
O=c1c2ccccc2[nH]c(=S)n1Cc1ccon1 [Compound 5],–,895,Ki (MRGPRX2 [1]; [4]): 1000 nM
Cn1ccnc1Cn1c(=S)[nH]c2ccccc2c1=O [Compound 6],6.5,318,–
Cc1csc(Cn2c(=S)[nH]c3ccccc3c2=O)n1 [Compound C9-7],6.03 ± 0.08,929,–
